From patent US12269827B1, “Substituted pyrazino[1′,2′:1,5]pyrazolo[4,3-c][1,6]naphthyridines as CK2 inhibitors” (KING FAISAL UNIVERSITY, priority 2023, dated 2025)

What was measured:
MCF7 (breast) = test: In vitro cytotoxic activity MTT assay, MCF7; assay type: cell-based; conditions: Homo sapiens; MCF7 (breast) cells, exposed for 96 hours; read-out: Cytotoxicity activity IC50 (50% inhibition of cell proliferation)
Method: (§1) Compounds 1-16 were screened for their in vitro cytotoxic activity utilizing a 3-(4,5-dimethyl-thiazol-2-yl)-2,5-diphenyltetrazolium bromide (MTT) assay against selected cancer human cell lines consisting of PC3 (prostate), HCT116 (colon), A375 (melanoma), H1299 (lung), MIAPaCa-2 (pancreas), HL60 (leukemia), MCF7 (breast), MDA-MB-231 (breast) (T. Mosmann, J. Immunol. Meth., 1983, 65, 55-63). The cells were cultured at 37° C. in RMPI1640 medium supplemented with 10% fetal bovine serum, 50 IU/mL penicillin, and 50 µg/mL streptomycin in a 5% CO2 incubator. All cells were sub-cultured 3 times/week by trypsinisation. Viable cells were seeded and allowed to adhere for 12 hours before a test drug was added in 96-well plates at an initial density of 1.0×10^5 cells/mL. Tumor cell lines were separately exposed to various concentrations of the tested compounds followed by incubation at a temperature of 37° C. during 96 hours inside a medium of fresh RMPI 1640. Cells were subsequently incubated at 37° C. using MTT at 0.5 mg/mL during 4 hours. After removal of supernatant, formazan crystals were dissolved in isopropanol and the optical density was measured at 570 nm. CX-4945 was used as a positive control.

A375 (melanoma) = test: In vitro cytotoxic activity MTT assay, A375; assay type: cell-based; conditions: Homo sapiens, A-375; A375 (melanoma) cells, exposed for 96 hours; read-out: Cytotoxicity activity IC50 (50% inhibition of cell proliferation)
Method: as §1

HCT116 (colon) = test: In vitro cytotoxic activity MTT assay, HCT116; assay type: cell-based; conditions: Homo sapiens, HCT-116; HCT116 (colon) cells, exposed for 96 hours; read-out: Cytotoxicity activity IC50 (50% inhibition of cell proliferation)
Method: as §1

PC3 (prostate) = test: In vitro cytotoxic activity MTT assay, PC3; assay type: cell-based; conditions: Homo sapiens, Prostate cell; PC3 (prostate) cells, exposed for 96 hours; read-out: Cytotoxicity activity IC50 (50% inhibition of cell proliferation)
Method: as §1

H1299 (lung) = test: In vitro cytotoxic activity MTT assay, H1299; assay type: cell-based; conditions: Homo sapiens, NCI-H1299; H1299 (lung) cells, exposed for 96 hours; read-out: Cytotoxicity activity IC50 (50% inhibition of cell proliferation)
Method: as §1

MDA-MB-231 (breast) = test: In vitro cytotoxic activity MTT assay, MDA-MB-231; assay type: cell-based; conditions: Homo sapiens; MDA-MB-231 (breast) cells, exposed for 96 hours; read-out: Cytotoxicity activity IC50 (50% inhibition of cell proliferation)
Method: as §1

[1] = target: T1, recombinant human CK2 (RRββ-holoenzyme) (Homo sapiens, UniProt P68400); test: CK2 Kinase Assay (33P-ATP, substrate peptide RRRDDDSDDD); assay type: biochemical; conditions: final ATP concentration 15 μM, 10 minutes at 30° C.; read-out: protein kinase CK2 IC50
T1 construct: purchased Millipore
Method: CK2 Kinase Assay was conducted using the protocol as described in Pierre F. et al; J. Med. Chem. 2011, 54, 635-654. The tested compounds in aqueous solution were added at a volume of 10 μL to a reaction mixture comprising 10 μL of assay dilution buffer (ADB; 20 mM MOPS, pH 7.2, 25 mM β-glycerol phosphate, 5 mM EGTA, 1 mM sodium orthovanadate, and 1 mM dithiothreitol), 10 μL of substrate peptide (RRRDDDSDDD, dissolved in ADB at a concentration of 1 mM), 10 μL of recombinant human CK2 (RRββ-holoenzyme, 25 ng dissolved in ADB; Millipore). Reactions were initiated by the addition of 10 μL of ATP solution (90% 75 mMMgCl2, 75 μM ATP (final ATP concentration:15 μM) dissolved in ADB; 10% [γ-33P] ATP (stock 1 mCi/100 μL; 3000 Ci/mmol (Perkin-Elmer) and maintained for 10 minutes at 30° C. The reactions were quenched with 100 μL of 0.75% phosphoric acid and then transferred to and filtered through a phosphor cellulose filter plate (Millipore). After washing each well five times with 0.75% phosphoric acid, the plate was dried under vacuum for 5 min and, following the addition of 15 μL of scintillation fluid to each well, the residual radioactivity was measured using a Wallac […]. The IC50 values were derived from eight concentrations of test inhibitors.

MIAPaCa-2 (pancreas) = test: In vitro cytotoxic activity MTT assay, MIAPaCa-2; assay type: cell-based; conditions: Homo sapiens, MIA PaCa-2; MIAPaCa-2 (pancreas) cells, exposed for 96 hours; read-out: Cytotoxicity activity IC50 (50% inhibition of cell proliferation)
Method: as §1

HL60 (leukemia) = test: In vitro cytotoxic activity MTT assay, HL60; assay type: cell-based; conditions: Homo sapiens, HL-60; HL60 (leukemia) cells, exposed for 96 hours; read-out: Cytotoxicity activity IC50 (50% inhibition of cell proliferation)
Method: as §1

T1 sequence (P68400 whole entry): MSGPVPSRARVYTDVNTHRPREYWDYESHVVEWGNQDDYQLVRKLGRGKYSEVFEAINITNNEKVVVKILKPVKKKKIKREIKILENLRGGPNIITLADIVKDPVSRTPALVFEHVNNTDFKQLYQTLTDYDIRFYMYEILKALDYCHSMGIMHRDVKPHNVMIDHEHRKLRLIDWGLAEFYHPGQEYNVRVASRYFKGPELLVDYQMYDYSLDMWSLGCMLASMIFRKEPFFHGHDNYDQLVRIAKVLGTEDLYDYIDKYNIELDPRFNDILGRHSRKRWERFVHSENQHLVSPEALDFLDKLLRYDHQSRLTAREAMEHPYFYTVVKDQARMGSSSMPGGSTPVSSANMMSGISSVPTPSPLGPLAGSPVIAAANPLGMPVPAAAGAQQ
T1 sequence (P67870 whole entry partner): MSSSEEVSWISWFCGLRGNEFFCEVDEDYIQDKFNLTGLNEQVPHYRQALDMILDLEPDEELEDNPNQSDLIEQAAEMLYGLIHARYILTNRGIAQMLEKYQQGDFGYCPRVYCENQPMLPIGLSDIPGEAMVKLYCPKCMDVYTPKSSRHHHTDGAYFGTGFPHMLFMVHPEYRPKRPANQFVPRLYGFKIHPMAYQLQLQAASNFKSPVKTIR

Clc1cccc(Nc2nc3ccncc3c3nn4ccncc4c23)c1 [Compound 1, N-(3-chlorophenyl)pyrazino[1′,2′:1,5]pyrazolo[4,3-c][1,6]naphthyridin-6-amine]
IC50 (MCF7 (breast)): 5.7 µM | IC50 (A375 (melanoma)): 3.7 µM | IC50 (HCT116 (colon)): 1.8 µM | IC50 (PC3 (prostate)): 1.3 µM | IC50 (H1299 (lung)): 1.5 µM | IC50 (MDA-MB-231 (breast)): 4.6 µM | IC50 [1]: 0.038 µM | IC50 (MIAPaCa-2 (pancreas)): 1.2 µM | IC50 (HL60 (leukemia)): 4.4 µM
